Laboratory results taken from ChEMBL document CHEMBL1201862, “PubChem BioAssay data set” (2004).
Activity calls are given as the source filed them.

Key:
[1] = loss of viability in HepG2 cells – cell-based, CellTiter-Glo, cherry-picked, cytotoxicity control for Shn3 inhibitor project, dose response (AID 624134); type: functional
[2] = non-specific 3'UTR reporter inhibition in Clone20-Shn3RL – cell-based, Renilla luciferase, cherry-picked, counter-screen for Shn3 inhibitor project, dose response (AID 624133); type: functional
[3] = reduction of Shn3 3'UTR-driven luciferase in osteoblasts – cell-based, Clone20 osteoblasts, firefly luciferase, cherry-picked, dose response (AID 624132); type: functional;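 note: firefly luciferase luminescence from reporter carrying the Shn3 3'UTR in osteoblasts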
[4] = target: T1, COUP transcription factor 2 (Homo sapiens, UniProt P24468); assay: Luminescence-based cell-based high throughput dose response assay to identify inhibitors of COUP-TFII (NR2F2).; type: functional;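 note: HEK293 cells transiently cotransfected with COUP-TFII expression vector and reporter; luciferase reporter luminescence driven by COUP-TFII from the pX2-168 reporter plasmid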
T1 sequence (P24468 whole entry): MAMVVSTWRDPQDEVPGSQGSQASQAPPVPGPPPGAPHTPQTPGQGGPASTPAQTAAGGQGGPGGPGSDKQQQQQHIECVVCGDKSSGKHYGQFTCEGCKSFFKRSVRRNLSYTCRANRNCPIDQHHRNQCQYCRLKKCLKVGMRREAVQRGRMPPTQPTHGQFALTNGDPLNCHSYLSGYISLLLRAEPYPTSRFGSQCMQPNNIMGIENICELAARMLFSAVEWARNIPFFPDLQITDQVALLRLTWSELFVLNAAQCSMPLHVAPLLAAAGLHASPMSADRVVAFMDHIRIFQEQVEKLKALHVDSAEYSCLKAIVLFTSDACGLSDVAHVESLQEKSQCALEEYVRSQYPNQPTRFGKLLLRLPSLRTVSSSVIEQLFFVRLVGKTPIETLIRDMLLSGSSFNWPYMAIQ

[5] = target: Nuclear receptor subfamily 5 group A member 2 (Homo sapiens, UniProt O00482); type: functional, cell-based;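 note: HEK293T cells transfected with LRH-1 and a StAR promoter luciferase reporter; potency for inhibitors that lower LRH-1 driven reporter light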
Sequence of Nuclear receptor subfamily 5 group A member 2 (O00482 whole entry): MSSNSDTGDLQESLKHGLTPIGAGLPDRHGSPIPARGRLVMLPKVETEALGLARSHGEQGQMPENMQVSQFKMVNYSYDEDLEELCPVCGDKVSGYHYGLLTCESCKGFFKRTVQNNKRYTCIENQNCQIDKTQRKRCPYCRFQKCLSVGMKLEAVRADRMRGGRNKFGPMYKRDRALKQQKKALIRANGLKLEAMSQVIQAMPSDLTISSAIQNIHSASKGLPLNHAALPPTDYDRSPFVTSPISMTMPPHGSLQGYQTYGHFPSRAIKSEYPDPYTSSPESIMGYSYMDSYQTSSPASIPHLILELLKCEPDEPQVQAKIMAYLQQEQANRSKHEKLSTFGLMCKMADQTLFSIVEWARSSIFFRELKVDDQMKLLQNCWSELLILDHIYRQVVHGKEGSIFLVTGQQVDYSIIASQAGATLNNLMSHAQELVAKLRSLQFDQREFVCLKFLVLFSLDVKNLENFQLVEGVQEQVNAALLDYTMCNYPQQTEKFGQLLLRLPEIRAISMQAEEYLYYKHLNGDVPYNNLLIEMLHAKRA

[6] = target: Steroidogenic factor 1 (Homo sapiens, UniProt Q13285); assay: Counterscreen for inverse agonists of the liver receptor homolog-1 (LRH-1; NR5A2): Luminescence-based cell-based high throughput dose response assay to identify inverse agonists of the Steroidogenic Factor 1 Nuclear Receptor (SF1; NR5A1).; type: functional
Sequence of Steroidogenic factor 1 (Q13285 whole entry): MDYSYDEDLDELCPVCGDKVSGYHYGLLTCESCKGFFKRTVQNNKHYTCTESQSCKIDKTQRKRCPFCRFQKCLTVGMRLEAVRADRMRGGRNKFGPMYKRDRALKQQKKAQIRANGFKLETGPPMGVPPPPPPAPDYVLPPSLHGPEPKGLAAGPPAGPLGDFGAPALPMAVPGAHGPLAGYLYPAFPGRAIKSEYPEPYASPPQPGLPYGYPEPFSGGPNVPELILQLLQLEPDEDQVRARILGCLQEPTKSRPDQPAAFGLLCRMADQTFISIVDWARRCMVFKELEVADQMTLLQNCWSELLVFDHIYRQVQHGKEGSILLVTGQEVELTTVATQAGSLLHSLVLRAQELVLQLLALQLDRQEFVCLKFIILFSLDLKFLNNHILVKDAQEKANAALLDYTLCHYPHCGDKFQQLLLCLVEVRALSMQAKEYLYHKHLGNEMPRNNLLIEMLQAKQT

[7] = nonselective StAR promoter luciferase inhibitors – cell-based, luminescence, luciferase reporter, counter-screen for LRH-1 inverse agonist project, dose response (AID 651969); type: functional
[8] = target: T2, Sentrin-specific protease 1 (Homo sapiens, UniProt Q9P0U3); assay: Dose response confirmation of small molecule inhibitors of the catalytic domain of the SUMO protease, SENP1 in a FRET assay.; type: functional; details: read-out: IC50_Mean
T2 sequence (Q9P0U3 whole entry): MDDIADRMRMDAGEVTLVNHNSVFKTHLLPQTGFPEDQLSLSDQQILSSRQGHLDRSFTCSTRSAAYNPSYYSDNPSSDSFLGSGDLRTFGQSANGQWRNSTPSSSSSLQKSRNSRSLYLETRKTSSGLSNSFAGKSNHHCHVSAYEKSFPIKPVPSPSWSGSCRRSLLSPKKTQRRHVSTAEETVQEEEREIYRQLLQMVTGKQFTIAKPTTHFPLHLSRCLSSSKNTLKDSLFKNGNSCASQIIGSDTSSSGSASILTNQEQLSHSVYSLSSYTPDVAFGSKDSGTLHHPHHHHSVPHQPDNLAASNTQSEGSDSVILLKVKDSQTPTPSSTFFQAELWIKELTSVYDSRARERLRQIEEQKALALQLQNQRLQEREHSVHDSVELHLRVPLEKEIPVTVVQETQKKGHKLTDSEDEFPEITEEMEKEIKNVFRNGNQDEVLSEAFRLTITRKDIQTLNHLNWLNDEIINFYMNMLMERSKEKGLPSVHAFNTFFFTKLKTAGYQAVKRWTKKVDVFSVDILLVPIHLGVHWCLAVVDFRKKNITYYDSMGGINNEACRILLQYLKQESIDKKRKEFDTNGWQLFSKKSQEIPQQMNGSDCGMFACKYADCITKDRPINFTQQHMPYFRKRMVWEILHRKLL

[9] = target: T2, Sentrin-specific protease 1; assay: SENP1 catalytic domain blockers, concentration series – biochemical, kinetic FRET, dose response (AID 651697); type: functional; details: read-out: IC50_Mean
[10] = OVCAR8 cell viability loss – plate reader, dry powder samples, PAX8 project, dose response (AID 743197); type: functional, cell-based; details: OVCAR-8
[11] = A2780 cell killing – plate reader, dry powder samples, cytotoxicity control, dose response (AID 743046); type: functional, cell-based
[12] = OVCAR-3 cell viability loss – plate reader, dry powder samples, PAX8 inhibitor project, dose response (AID 743044); type: functional, cell-based
[13] = target: Paired box protein Pax-8 (Homo sapiens, UniProt Q06710); assay: PAX8 transcriptional activity inhibition in RMG-I – RMG-I cells, luciferase, cherry-pick, dose response (AID 687027); type: functional, cell-based;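 note: luciferase reporter driven by Pax8 target thyroperoxidase promoter measured by SteadyGlo luminescence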
Sequence of Paired box protein Pax-8 (Q06710 whole entry): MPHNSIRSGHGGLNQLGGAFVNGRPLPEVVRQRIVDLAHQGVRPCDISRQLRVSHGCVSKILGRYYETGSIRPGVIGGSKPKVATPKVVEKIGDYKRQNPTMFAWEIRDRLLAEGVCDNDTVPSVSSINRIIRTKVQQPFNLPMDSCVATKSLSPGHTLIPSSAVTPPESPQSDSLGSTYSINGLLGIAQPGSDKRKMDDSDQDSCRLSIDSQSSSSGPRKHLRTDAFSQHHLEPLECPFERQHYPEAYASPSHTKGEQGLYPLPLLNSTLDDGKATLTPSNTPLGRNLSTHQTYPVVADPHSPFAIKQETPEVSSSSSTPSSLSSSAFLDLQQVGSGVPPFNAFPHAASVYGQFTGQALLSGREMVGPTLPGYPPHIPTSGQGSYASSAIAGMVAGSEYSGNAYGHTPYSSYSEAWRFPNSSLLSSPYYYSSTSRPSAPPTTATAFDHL

[14] = target: T3, Small ubiquitin-related modifier 1 (Homo sapiens, UniProt P63165); assay: SUMO1 protein-protein binding blockers, potency – biochemical, FRET, dose response (AID 624383); type: functional; details: read-out: IC50_Mean
T3 sequence (P63165 whole entry): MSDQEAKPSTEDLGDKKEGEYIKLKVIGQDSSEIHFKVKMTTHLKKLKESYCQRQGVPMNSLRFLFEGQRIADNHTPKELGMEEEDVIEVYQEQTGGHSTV

[15] = target: T3, Small ubiquitin-related modifier 1; assay: SUMO1 protein interaction blockers, potency – biochemical, fluorescence polarization, uHTS hits, dose response (AID 624382); type: functional; details: read-out: IC50_Mean
[16] = target: Disintegrin and metalloproteinase domain-containing protein 17 (Homo sapiens, UniProt P78536); assay: inhibition of ADAM17 substrate cleavage – biochemical, quenched FRET substrate, counter-screen for ADAM10 exosite inhibitor project, dose response (AID 743253)
Sequence of Disintegrin and metalloproteinase domain-containing protein 17 (P78536 whole entry, the tested form may be a part): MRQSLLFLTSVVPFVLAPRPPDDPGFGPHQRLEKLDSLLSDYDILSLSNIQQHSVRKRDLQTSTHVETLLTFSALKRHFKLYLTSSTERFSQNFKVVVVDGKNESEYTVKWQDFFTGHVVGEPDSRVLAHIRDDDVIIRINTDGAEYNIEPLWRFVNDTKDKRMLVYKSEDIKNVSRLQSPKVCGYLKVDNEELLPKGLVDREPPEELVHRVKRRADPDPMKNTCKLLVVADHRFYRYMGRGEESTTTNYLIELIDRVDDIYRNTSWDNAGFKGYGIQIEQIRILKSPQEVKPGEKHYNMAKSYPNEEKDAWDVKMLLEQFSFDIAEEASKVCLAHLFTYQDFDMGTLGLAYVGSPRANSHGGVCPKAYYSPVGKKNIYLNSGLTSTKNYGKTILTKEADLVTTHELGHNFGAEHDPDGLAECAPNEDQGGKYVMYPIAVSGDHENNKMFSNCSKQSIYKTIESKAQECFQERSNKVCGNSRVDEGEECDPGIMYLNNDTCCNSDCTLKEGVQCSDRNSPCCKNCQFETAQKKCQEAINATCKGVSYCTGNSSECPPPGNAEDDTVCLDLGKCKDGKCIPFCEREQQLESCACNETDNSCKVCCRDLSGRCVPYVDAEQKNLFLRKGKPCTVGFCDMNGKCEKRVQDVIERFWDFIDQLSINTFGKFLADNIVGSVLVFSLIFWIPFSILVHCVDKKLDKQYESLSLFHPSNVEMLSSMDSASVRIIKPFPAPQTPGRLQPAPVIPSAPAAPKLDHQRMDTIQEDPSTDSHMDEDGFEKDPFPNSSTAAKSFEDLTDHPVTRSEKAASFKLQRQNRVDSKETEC

[17] = potency of ADAM10 substrate cleavage blockers – biochemical, QFRET, dose response (AID 743254);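 note: ADAM10 enzyme with the DM2 quenched FRET peptide as substrate; EDANS fluorescence gain as the protease cuts the substrate; inhibitor potency against ADAM10 proteolytic activity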
[18] = target: Albumin (Bos taurus, UniProt P02769); assay: Counterscreen for inhibitors of T-cell receptor (TCR)-CD3 interaction: Fluorescence-based biochemical high throughput dose response assay to identify inhibitors of T-cell receptor (TCR)-CD3 interaction using a TAMRA-labeled BSA probe.; type: functional
Sequence of Albumin (P02769 whole entry): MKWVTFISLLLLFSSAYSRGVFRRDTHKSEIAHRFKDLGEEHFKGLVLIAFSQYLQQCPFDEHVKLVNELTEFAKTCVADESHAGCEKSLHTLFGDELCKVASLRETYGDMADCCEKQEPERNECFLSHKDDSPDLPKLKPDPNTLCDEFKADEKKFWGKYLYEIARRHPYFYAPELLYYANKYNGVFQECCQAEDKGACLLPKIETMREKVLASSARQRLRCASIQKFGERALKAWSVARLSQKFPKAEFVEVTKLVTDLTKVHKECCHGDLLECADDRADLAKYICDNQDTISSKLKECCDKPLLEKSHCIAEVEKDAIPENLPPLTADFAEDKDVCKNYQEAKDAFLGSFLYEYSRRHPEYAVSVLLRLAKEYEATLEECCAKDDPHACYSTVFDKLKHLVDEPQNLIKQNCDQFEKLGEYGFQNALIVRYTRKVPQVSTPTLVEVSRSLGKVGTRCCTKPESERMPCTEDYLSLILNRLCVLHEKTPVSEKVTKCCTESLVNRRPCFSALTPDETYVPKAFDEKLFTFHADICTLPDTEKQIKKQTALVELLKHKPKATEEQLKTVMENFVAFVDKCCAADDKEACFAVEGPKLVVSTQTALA

[19] = target: T4, Methionyl-tRNA synthetase, putative (Trypanosoma brucei brucei, UniProt Q38C91); type: functional, Trypanosoma brucei brucei strain 927/4 GUTat10.1
T4 sequence (Q38C91 whole entry): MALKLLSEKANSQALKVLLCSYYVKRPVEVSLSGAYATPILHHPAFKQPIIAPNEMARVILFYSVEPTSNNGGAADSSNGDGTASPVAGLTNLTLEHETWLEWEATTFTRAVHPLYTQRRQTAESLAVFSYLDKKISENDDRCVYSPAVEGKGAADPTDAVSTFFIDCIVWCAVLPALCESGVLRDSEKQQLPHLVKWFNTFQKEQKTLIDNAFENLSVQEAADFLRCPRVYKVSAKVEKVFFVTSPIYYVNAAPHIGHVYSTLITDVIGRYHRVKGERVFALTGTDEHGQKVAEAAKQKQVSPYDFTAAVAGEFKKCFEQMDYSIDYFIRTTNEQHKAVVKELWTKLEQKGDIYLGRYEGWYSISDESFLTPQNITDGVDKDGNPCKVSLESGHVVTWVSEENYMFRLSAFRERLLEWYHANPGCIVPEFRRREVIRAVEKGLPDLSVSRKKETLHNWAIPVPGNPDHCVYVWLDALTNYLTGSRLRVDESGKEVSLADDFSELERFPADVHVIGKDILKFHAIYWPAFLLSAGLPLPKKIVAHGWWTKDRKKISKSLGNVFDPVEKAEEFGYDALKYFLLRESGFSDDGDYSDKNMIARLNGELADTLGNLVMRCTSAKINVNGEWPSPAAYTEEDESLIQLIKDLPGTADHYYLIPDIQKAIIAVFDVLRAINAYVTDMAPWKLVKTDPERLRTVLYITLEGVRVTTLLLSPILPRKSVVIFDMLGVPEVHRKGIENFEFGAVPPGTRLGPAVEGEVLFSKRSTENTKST

[20] = Counterscreen for inhibitors of Trypanosoma brucei methionyl tRNA synthetase (MetRS): Luminescence-based cell-based high throughput dose response assay to identify compounds that are cytotoxic to Jurkat human T lymphocyte cells.; type: functional
[21] = target: T4, Methionyl-tRNA synthetase, putative; type: functional, Trypanosoma brucei brucei strain 927/4 GUTat10.1; remark: listed apart in the source

Which AC50 [1] does the source give for Cc1cc(/C=C2/SC(=S)N(c3cccc(Cl)c3)C2=O)c(C)n1-c1cccnc1 here?
The AC50 was 47.8 µM (active).

And the AC50 [2]?
The AC50 was 3.55 µM (active).

And the AC50 [3]?
The AC50 was 0.979 µM (active).

What about the IC50 [4] of the same compound?
The IC50 was 5.65 µM (active).

With O=C(CSc1nnc(CNC(=O)c2c(F)cccc2F)o1)Nc1ccc2c(c1)OCCO2 as the compound, how does the IC50 [5] read?
The IC50 was 35.9 µM (inactive).

And the IC50 [6]?
The IC50 was 31 µM (inactive).

What about the IC50 [7] of the same compound?
The IC50 was 35.9 µM (inactive).

Which results are given for Cc1cccc(C)c1-n1nnnc1-c1nc2cc3ccccc3cc2nc1O?
IC50 [8]: 1.93 µM (active); IC50 [9]: 7.1 µM (active)

With C[C@H](CO)N1C[C@H](C)[C@@H](CN(C)Cc2ccc(C(F)(F)F)cc2)OCCCC[C@H](C)Oc2ccc(NC(=O)Nc3ccc(F)cc3)cc2C1=O as the compound, how does the AC50 [10] read?
Its AC50 is 39.2 µM (active).

What about the AC50 [11] of the same compound?
Its AC50 is 46.6 µM (active).

And the AC50 [12]?
The AC50 was 45.4 µM (active).

And the AC50 [13]?
The AC50 was 9.37 µM (active).

With COc1ccc(Cl)cc1Nc1nc(-c2sc(NC(=O)C(C)(C)C)nc2C)cs1 as the compound, how does the IC50 [14] read?
Its IC50 is 7.99 µM (active).

And the IC50 [4]?
Its IC50 is 11.2 µM (inactive).

And the IC50 [15]?
Its IC50 is > 66.6 µM (inactive).

Which IC50 [8] does the source give for COC(=O)c1ccc(-c2nc(O)c(C)s2)cc1 here?
The IC50 was 8.08 µM (active).

And the IC50 [9]?
Its IC50 is 7.31 µM (active).

For C[C@@H]1CN([C@@H](C)CO)C(=O)c2cc(NC(=O)Nc3ccccc3)ccc2O[C@@H](C)CCCCO[C@H]1CN(C)Cc1ccc(Cl)c(Cl)c1, which AC50 [11] is on record?
Its AC50 is 3.59 µM (active).

Which results are given for C[C@@H]1CCCCO[C@@H](CN(C)C(=O)Nc2ccc3c(c2)OCO3)[C@@H](C)CN([C@H](C)CO)C(=O)c2cc(NC(=O)Nc3ccc(C(F)(F)F)cc3)ccc2O1?
IC50 [16]: > 69.5 µM (inactive); IC50 [17]: > 69.5 µM (inactive)

For O=C(CSc1nc2ccccc2s1)N/N=C/c1cc([N+](=O)[O-])ccc1O, which IC50 [18] is on record?
Its IC50 is > 94.1 µM (inactive).

With O=C(CN1CCS/C1=N/Cc1ccccc1)c1ccc(Cl)c(Cl)c1 as the compound, how does the IC50 [19] read?
Its IC50 is 3.92 µM (active).

What about the IC50 [20] of the same compound?
The IC50 was 48.2 µM (inactive).

What about the IC50 [21] of the same compound?
The IC50 was 2.67 µM (active).
